Patent US11266663B2, “Treatment of neuropsychiatric disorders with neurosteroids and analogues thereof” (THE BOARD OF TRUSTEES OF THE UNIVERSITY OF ILLINOIS, priority 2017, dated 2022)
Several values for one entry are separate records, joined by “and”; a condition that tells them apart may be missing. Equal entries are not always repeated. Entries after “also recorded” stand apart in the source; their conditions may differ.

Tests used:
[1] = system: early and late adolescent SI mice; assay: Resident-intruder test, aggressive behavior of socially isolated (SI) mice; assay type: in vivo, Swiss-Webster mice; conditions: for reduction in the number of attacks vs. basal value / EC50 dose, decrease of aggression: 60 min before test; for “Non-responders” Early SI mice (%) / “Non-responders” Late SI mice (%): decrease of aggression <=30% vs basal; for EC50 dose, decrease of aggression: i.p.
From the text: Male Swiss-Webster mice (Harlan Breeders) (18-30 g body weight), maintained under a 12-h dark/light cycle with food and water ad libitum were used for all experiments. Mice were housed individually in a cage of dimensions 24 cm×17 cm×12 cm. For these experiments, two mice experimental groups were used for the study of drug effect in different age conditions. The first group was isolated at 21 days (“early adolescent SI mice,” PND 21), while the second group at 45 days (“late adolescent SI mice,” PND 45). The animals were exposed to behavioral testing after 6 weeks of isolation. The vivarium temperature was kept at 24° C. and the humidity near 65%.
[…] All the drugs were dissolved in saline solution containing 0.5% Tween-80 (Sigma Aldrich, St. Louis, Mo., United States), and were injected intraperitoneally (i.p.), 60 min before behavioral tests.
To test aggression, a male intruder mouse of the same strain as the resident mouse, was placed in a resident home cage (24 cm×17 cm×12 cm) and resident-intruder interactions were videotaped for 10 min. Aggressive behavior of SI mice was characterized by an initial pattern of exploratory activity around the intruder, followed by rearing and tail rattle, accompanied within a few seconds by wrestling and/or a violent biting attacks. The total number of wrestling and attacks during the 10 min observation period was measured as previously described (Pinna et al., 2003, 2005), 60 min after drug administration. For every drug studied, SI mice were first exposed to three behavioral sessions, and then the average of basal aggression level for every single SI mouse was calculated; 2 days later, aggression levels following treatment were tested. Treated animals showing a reduction of the number of attacks less than 30% vs. the respective basal control values were considered as “low- to non-responders.”
Results are presented as means±SEMs unless otherwise indicated. Student's t-test, one-way ANOVA and two-way ANOVA repeated measures followed by Bonferroni post hoc test were performed to analyze experimental data; significance was set at p<0.05. EC50 values were calculated from dose-response curves analyzed by the “quantal dose-response: probits test” using the computer program of Tallarida and Murray equipped with a statistical package (Tallarida and Murray, 1987). Statistical comparisons among the different ECsos were performed with the “cohort package software.” (available at cohort.com).

[2] = system: early and late adolescent SI mice; assay: Locomotor activity test; assay type: in vivo, Swiss-Webster mice; conditions: all doses tested, i.p., 60 min before test, 10 min recording
Procedure: BR351 (1-5 mg/kg) and BR297 (0.3125-2.5 mg/kg) were obtained from NeuroRhine Consortium (Strasbourgh, France). All the drugs were dissolved in saline solution containing 0.5% Tween-80 (Sigma Aldrich, St. Louis, Mo., United States), and were injected intraperitoneally (i.p.), 60 min before behavioral tests.
A computerized AccuScan 12 Animal Activity Monitoring System (Columbus Instruments, Columbus, Ohio, United States) assisted by VERSAMAX software (AccuScan Instruments, Columbus, Ohio, United States) was used to quantify locomotor activity (Pinna et al., 1997, 2006a). Each activity cage was made of a 20 cm×20 cm×20 cm Perspex box surrounded by horizontal and vertical infrared sensor beams. Horizontal sensors' beam interruptions were taken as a measure of horizontal activity.

[3] = system: early and late adolescent SI mice; conditions: i.p., previously established in Pinna and Rasmusson, 2014; cited from earlier work
[4] = system: post-partum depression patients; conditions: two-day course of intravenous infusion; cited from earlier work
[5] = early SI mice, single dose, dose not stated (FIG. 5 legend)
[6] = late SI mice, single dose, dose not stated (FIG. 5 legend)
[7] = early SI mice, single dose 2.5 mg/kg
[8] = early adolescent SI mice (PND 21)
[9] = late SI mice, single dose 2.5 mg/kg (given in mg)
[10] = late adolescent SI mice (PND 45)

CNCC[C@H](Oc1ccc(C(F)(F)F)cc1)c1ccccc1 [S-FLX, S-fluoxetine, reference compound]
duration of anti-aggressive effect (time until aggression rebounded to basal values) ([1]; early SI mice, single dose 0.375 mg/kg): 1 days | duration of anti-aggressive effect (time until aggression rebounded to basal values) ([1]; early SI mice, single dose 0.75 mg/kg): 3 days | duration of anti-aggressive effect (time until aggression rebounded to basal values) [1, 5]: 3 days | reduction in the number of attacks vs. basal value ([1]; late SI mice (PND 45), 0.75 mg/kg i.p.): −52% | duration of anti-aggressive effect (time until aggression rebounded to basal values) ([1]; late SI mice, single dose 0.375 mg/kg): 1 days | duration of anti-aggressive effect (time until aggression rebounded to basal values) ([1]; late SI mice, single dose 0.75 mg/kg): 3 days | duration of anti-aggressive effect (time until aggression rebounded to basal values) [1, 6]: 3 days | effect on locomotor (exploratory) activity [2]: did not reduce exploratory activity; also recorded: failed to alter locomotion patterns

CC(=O)[C@H]1CC[C@H]2[C@@H]3CC[C@H]4C[C@](C)(O)CC[C@]4(C)[C@H]3CC[C@]12C [GNX, ganaxolone, reference compound]
difference of anti-aggressive effect, late compared with early SI mice ([1]; 10 mg/kg i.p.): +197% | reduction in the number of attacks vs. basal value ([1]; early SI mice (PND 21), 10 mg/kg i.p.): −72% | “Non-responders” Early SI mice (%) ([1]; early SI mice, single dose 10 mg/kg (given in mg), 10 mg/kg): 25% | reduction in the number of attacks vs. basal value ([1]; late SI mice (PND 45), 10 mg/kg i.p.): −46% | “Non-responders” Late SI mice (%) ([1]; late SI mice, single dose 10 mg/kg (given in mg), 10 mg/kg): 15.38% and 15.4% | duration of anti-aggressive effect (time until aggression rebounded to basal values) ([1]; late SI mice, single dose 10 mg/kg (EC50 dose)): 5 days | effect on locomotor (exploratory) activity [2]: failed to alter locomotion patterns | EC50 dose [3]: 10 mg/kg

C=CCO[C@H]1CC[C@]2(C)C3CC[C@@]4(C)C(CC[C@@H]4C(C)=O)C3CC[C@H]2C1 (stereo partly shown) [BR297]
difference of anti-aggressive effect, late compared with early SI mice ([1]; 2.5 mg/kg i.p., trend, p=0.108): +235% | reduction in the number of attacks vs. basal value ([1]; early SI mice (PND 21), 0.3125 mg/kg i.p.): −59% | reduction in the number of attacks vs. basal value ([1]; early SI mice (PND 21), 0.625 mg/kg i.p.): −61% | reduction in the number of attacks vs. basal value ([1]; early SI mice (PND 21), 2.5 mg/kg i.p.): −70% | “Non-responders” Early SI mice (%) ([1]; early SI mice, single dose 0.3125 mg/kg (given in mg)): 30.0% | “Non-responders” Early SI mice (%) ([1]; early SI mice, single dose 0.625 mg/kg (given in mg)): 21.4% | “Non-responders” Early SI mice (%) ([1]; early SI mice, single dose 2.5 mg/kg (given in mg), 2.5 mg/kg): 6.25% and 6.3% | duration of anti-aggressive effect (time until aggression rebounded to basal values) ([1]; early SI mice, single dose 0.3125 mg/kg): 3 days | duration of anti-aggressive effect (time until aggression rebounded to basal values) ([1]; early SI mice, single dose 0.625 mg/kg): 7 days | duration of anti-aggressive effect (time until aggression rebounded to basal values) [1, 7]: 7 days | duration of anti-aggressive effect (time until aggression rebounded to basal values) [1, 5]: 7 days | EC50 dose, decrease of aggression [1, 8]: 0.25 mg/kg | reduction in the number of attacks vs. basal value ([1]; late SI mice (PND 45), 0.3125 mg/kg i.p.): −60% | reduction in the number of attacks vs. basal value ([1]; late SI mice (PND 45), 0.625 mg/kg i.p.): −63% | reduction in the number of attacks vs. basal value ([1]; late SI mice (PND 45), 2.5 mg/kg i.p.): −91% | “Non-responders” Late SI mice (%) ([1]; late SI mice, single dose 0.3125 mg/kg (given in mg)): 18.2% | “Non-responders” Late SI mice (%) ([1]; late SI mice, single dose 0.625 mg/kg (given in mg)): 18.2% | “Non-responders” Late SI mice (%) [1, 9]: 0% | duration of anti-aggressive effect (time until aggression rebounded to basal values) ([1]; late SI mice, single dose 0.3125 mg/kg): 3 days | duration of anti-aggressive effect (time until aggression rebounded to basal values) ([1]; late SI mice, single dose 0.625 mg/kg): 9 days | duration of anti-aggressive effect (time until aggression rebounded to basal values) [1, 6]: 9 days | EC50 dose, decrease of aggression [1, 10]: 0.25 mg/kg | effect on locomotor (exploratory) activity [2]: failed to alter locomotion patterns

CC(=O)C1CC[C@H]2[C@@H]3CCC4C[C@H](O)CC[C@]4(C)[C@H]3CC[C@]12C (stereo partly shown) [Allo, allopregnanolone]
duration of symptom improvement [4]: 30 days | remission of post-partum depression, patients [4]: 70% | time to symptom improvement [4]: 60 h

CCCCCCCCCCCCCCCC(=O)NCCO [PEA, N-palmitoylethanolamine]
effect on locomotor (exploratory) activity [2]: not altered

C=CCO[C@@H]1CC[C@]2(C)C3CC[C@@]4(C)C(CC[C@@H]4C(C)=O)C3CC[C@H]2C1 (stereo partly shown) [BR351]
difference of anti-aggressive effect, late compared with early SI mice ([1]; 5 mg/kg i.p., trend, p=0.0801): +179% | reduction in the number of attacks vs. basal value ([1]; early SI mice (PND 21), 5 mg/kg i.p.): −56% | “Non-responders” Early SI mice (%) ([1]; early SI mice, single dose 1 mg/kg (given in mg)): 50.0% | “Non-responders” Early SI mice (%) ([1]; early SI mice, single dose 2.5 mg/kg (given in mg)): 20.0% | “Non-responders” Early SI mice (%) ([1]; early SI mice, single dose 5 mg/kg (given in mg), 5 mg/kg): 13.33% and 13.3% | duration of anti-aggressive effect (time until aggression rebounded to basal values) ([1]; early SI mice, single dose 1 mg/kg): rapidly extinguished | duration of anti-aggressive effect (time until aggression rebounded to basal values) [1, 7]: 5 days | duration of anti-aggressive effect (time until aggression rebounded to basal values) ([1]; early SI mice, single dose 5 mg/kg): 3 days | EC50 dose, decrease of aggression [1, 8]: 4.5 mg/kg | reduction in the number of attacks vs. basal value ([1]; late SI mice (PND 45), 5 mg/kg i.p.): −80% | “Non-responders” Late SI mice (%) ([1]; late SI mice, single dose 1 mg/kg (given in mg)): 54.6% | “Non-responders” Late SI mice (%) [1, 9]: 40.0% | “Non-responders” Late SI mice (%) ([1]; late SI mice, single dose 5 mg/kg (given in mg), 5 mg/kg): 8.33% and 8.3% | duration of anti-aggressive effect (time until aggression rebounded to basal values) ([1]; late SI mice, single dose 1 mg/kg): 1 days | duration of anti-aggressive effect (time until aggression rebounded to basal values) ([1]; late SI mice, single dose 2.5 mg/kg): 5 days | duration of anti-aggressive effect (time until aggression rebounded to basal values) ([1]; late SI mice, single dose 5 mg/kg): 5 days | EC50 dose, decrease of aggression [1, 10]: 3.75 mg/kg | effect on locomotor (exploratory) activity [2]: failed to alter locomotion patterns
